PubChem BioAssay AID1963856 (Molecular Pharmacology Branch, DTP, NCI, 2024)

Tested on: LG0567-F671-PDC KRAS tumor spheroid viability
Assay: Anticancer human tumor LG0567-F671-PDC patient-derived lung adenocarcinoma cell line growth inhibition [KRAS2]
Details: spheroids with HUVEC and MSC; for IC50: curve of first compound; for viability, T/C: stronger effect = lower value
In short: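 KRAS-mutant tumor cells were grown as spheroids with HUVEC endothelial cells and human MSCs as stroma. Targeted agents were tested alone and with KRAS pathway inhibitors. Doses started at or near clinical Cmax, or 10 microM, descending half-log.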

[1] = second compound 0.1 µM, first compound 0.01 µM
[2] = second compound 0.1 µM, first compound 0.0316 µM
[3] = second compound 0.1 µM, first compound 0.1 µM
[4] = second compound 0.1 µM, first compound 0.316 µM
[5] = second compound 0.1 µM, first compound 1 µM
[6] = second compound 0.1 µM, first compound 3.16 µM
[7] = second compound 0.316 µM, first compound 0.01 µM
[8] = second compound 0.316 µM, first compound 0.0316 µM
[9] = second compound 0.316 µM, first compound 0.1 µM
[10] = second compound 0.316 µM, first compound 0.316 µM
[11] = second compound 0.316 µM, first compound 1 µM
[12] = second compound 0.316 µM, first compound 3.16 µM
[13] = second compound 1 µM, first compound 0.01 µM
[14] = second compound 1 µM, first compound 0.0316 µM
[15] = second compound 1 µM, first compound 0.1 µM
[16] = second compound 1 µM, first compound 0.316 µM
[17] = second compound 1 µM, first compound 1 µM
[18] = second compound 1 µM, first compound 3.16 µM
[19] = second compound 3.16 µM, first compound 0.01 µM
[20] = second compound 3.16 µM, first compound 0.0316 µM
[21] = second compound 3.16 µM, first compound 0.1 µM
[22] = second compound 3.16 µM, first compound 0.316 µM
[23] = second compound 3.16 µM, first compound 1 µM
[24] = second compound 3.16 µM, first compound 3.16 µM
[25] = second compound 10 µM, first compound 0.0316 µM
[26] = second compound 10 µM, first compound 0.1 µM
[27] = second compound 10 µM, first compound 0.316 µM
[28] = second compound 10 µM, first compound 1 µM
[29] = second compound 10 µM, first compound 3.16 µM
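Further: drug exposure lasted seven days after spheroids formed for three days.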
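Wherever viability, T/C is given: 100% = DMSO vehicle control viability.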

Row | SMILES | IC50 (second compound 0.1 µM) | IC50 (second compound 0.316 µM) | IC50 (second compound 1 µM) | IC50 (second compound 3.16 µM) | viability, T/C [2] | viability, T/C [3] | viability, T/C [4] | viability, T/C [5] | viability, T/C [8] | viability, T/C [9] | viability, T/C [10] | viability, T/C [11] | viability, T/C [14] | viability, T/C [15] | viability, T/C [16] | viability, T/C [17] | viability, T/C [20] | viability, T/C [21] | viability, T/C [22] | viability, T/C [23] | further results
1 | CC(=O)OC12COC1CC(O)C1(C)C(=O)C(O)C3=C(C)C(OC(=O)C(O)C(NC(=O)OC(C)(C)C)c4ccccc4)CC(O)(C(OC(=O)c4ccccc4)C21)C3(C)C (stereo not given) + CNCc1ccccc1-c1csc(C(C)Nc2nc(C)nc3cc(OC)c(OC)cc23)c1 | < 0.01 µM | < 0.01 µM | < 0.01 µM | < 0.01 µM | 46.4% | 43.9% | 47.1% | 61.4% | 34.3% | 34.4% | 42.4% | 39.5% | 40.9% | 42.2% | 48.3% | 48.1% | 0.94% | 0.36% | 0.26% | 0.19% | IC50 (second compound 10 µM): < 0.01 µM; viability, T/C [1]: 48.5%; viability, T/C [6]: 53.6%; viability, T/C [7]: 35.6%; viability, T/C [12]: 40%; viability, T/C [13]: 44%; viability, T/C [18]: 42.1%; viability, T/C [19]: 24%; viability, T/C [24]: 37.5%; viability, T/C (second compound 10 µM, first compound 0.01 µM): 0.6%; viability, T/C [25]: 0.13%; viability, T/C [26]: 0.43%; viability, T/C [27]: 0.19%; viability, T/C [28]: 42.7%; viability, T/C [29]: 0.85%
2 | CCN1CCN(Cc2ccc(Nc3ncc(F)c(-c4cc(F)c5nc(C)n(C(C)C)c5c4)n3)nc2)CC1 + C=CC(=O)N1CCN(c2nc(OCC3CCCN3C)nc3c2CCN(c2cccc4cccc(C)c24)C3)CC1CC#N | < 0.00316 µM | < 0.00316 µM | < 0.00316 µM | < 0.00316 µM | 18.6% | 20% | 22.1% | 25.3% | 16.7% | 22.5% | 23.7% | 27.7% | 22.1% | 21.8% | 26% | 33.5% | 25.6% | 29% | 31.4% | 29.4% | IC50 (second compound 0.0316 µM): < 0.00316 µM; viability, T/C (second compound 0.0316 µM, first compound 0.00316 µM): 36.1%; viability, T/C (second compound 0.0316 µM, first compound 0.01 µM): 32.4%; viability, T/C (second compound 0.0316 µM, first compound 0.0316 µM): 22.2%; viability, T/C (second compound 0.0316 µM, first compound 0.1 µM): 26.6%; viability, T/C (second compound 0.0316 µM, first compound 0.316 µM): 27.6%; viability, T/C (second compound 0.0316 µM, first compound 1 µM): 31.4%; viability, T/C (second compound 0.1 µM, first compound 0.00316 µM): 32.8%; viability, T/C [1]: 24.7%; viability, T/C (second compound 0.316 µM, first compound 0.00316 µM): 23.9%; viability, T/C [7]: 25.3%; viability, T/C (second compound 1 µM, first compound 0.00316 µM): 27.7%; viability, T/C [13]: 20.6%; viability, T/C (second compound 3.16 µM, first compound 0.00316 µM): 28%; viability, T/C [19]: 30.7%
3 | COc1cc2nccc(Oc3ccc(NC(=O)C4(C(=O)Nc5ccc(F)cc5)CC4)cc3)c2cc1OC + C=CC(=O)N1CCN(c2nc(=O)n(-c3c(C)ccnc3C(C)C)c3nc(-c4c(O)cccc4F)c(F)cc23)C(C)C1 | < 0.0316 µM | < 0.0316 µM | < 0.0316 µM | < 0.0316 µM | 24.2% | 20.6% | 21.3% | 18.9% | 21.5% | 19.1% | 17.1% | 14.9% | 22.3% | 23.9% | 17.6% | 17.3% | 21.8% | 23.4% | 20.3% | 16.8% | IC50 (second compound 10 µM): < 0.0316 µM; viability, T/C [6]: 10.8%; viability, T/C (second compound 0.1 µM, first compound 10 µM): 48.9%; viability, T/C [12]: 9.77%; viability, T/C (second compound 0.316 µM, first compound 10 µM): 51.1%; viability, T/C [18]: 9.01%; viability, T/C (second compound 1 µM, first compound 10 µM): 55%; viability, T/C [24]: 8.81%; viability, T/C (second compound 3.16 µM, first compound 10 µM): 50.4%; viability, T/C [25]: 18.3%; viability, T/C [26]: 18.4%; viability, T/C [27]: 17.6%; viability, T/C [28]: 13.7%; viability, T/C [29]: 10.7%; viability, T/C (second compound 10 µM, first compound 10 µM): 29.2%
